ChEMBL document CHEMBL1154960, “Development of improved inhibitors of wall teichoic acid biosynthesis with potent activity against Staphylococcus aureus” (Bioorg Med Chem Lett, 2010)
Active and inactive are the calls of the source. No rule for the calls is given here.

tested on: Staphylococcus aureus; assay: Antibacterial activity against tarO deficient Staphylococcus aureus RN4220 assessed as cell survival at 100 uM after 12 hrs by optical density plate reader method; assay type: functional; details: RN4220, 12 h

| SMILES | survival at 100 µM |
| --- | --- |
| Cc1ccc(-c2c3c(=O)n(C)c(=O)n(C)c3c3n2-c2ccccc2NC3c2ccc(C#N)cc2)cc1 (centres undefined) | 81% |
| COc1ccc(-c2c3c(=O)n(C)c(=O)n(C)c3c3n2-c2ccccc2NC3c2ccc(OC)cc2)cc1 (centres undefined) | 88% |
| Cc1ccc(-c2c3c(=O)n(C)c(=O)n(C)c3c3n2-c2ccccc2NC3c2ccc(C)cc2O)cc1 (centres undefined) | 64% |
| Cc1ccc(C2Nc3ccccc3-n3c(-c4ccccc4)c4c(=O)n(C)c(=O)n(C)c4c32)cc1 (centres undefined) | 70% |
| Cc1ccc(C2Nc3cc(C)c(C)cc3-n3c(-c4ccccc4)c4c(=O)n(C)c(=O)n(C)c4c32)o1 (centres undefined) | 92% |
| Cc1ccc(C2Nc3ccccc3-n3c(-c4ccccc4)c4c(=O)n(C)c(=O)n(C)c4c32)o1 (centres undefined) | 110% |

tested on: Staphylococcus aureus; assay: Antibacterial activity against Staphylococcus aureus RN4220 assessed as cell survival at 100 uM after 12 hrs by optical density plate reader method; assay type: functional; details: RN4220, 12 h

| SMILES | survival at 100 µM |
| --- | --- |
| Cc1ccc(-c2c3c(=O)n(C)c(=O)n(C)c3c3n2-c2ccccc2NC3c2ccc(C#N)cc2)cc1 (centres undefined) | 95% |
| COc1ccc(-c2c3c(=O)n(C)c(=O)n(C)c3c3n2-c2ccccc2NC3c2ccc(OC)cc2)cc1 (centres undefined) | 93% |
| Cc1ccc(-c2c3c(=O)n(C)c(=O)n(C)c3c3n2-c2ccccc2NC3c2ccc(C)cc2O)cc1 (centres undefined) | 34% |
| Cc1ccc(C2Nc3ccccc3-n3c(-c4ccccc4)c4c(=O)n(C)c(=O)n(C)c4c32)cc1 (centres undefined) | 4% |
| Cc1ccc(C2Nc3cc(C)c(C)cc3-n3c(-c4ccccc4)c4c(=O)n(C)c(=O)n(C)c4c32)o1 (centres undefined) | 95% |
| Cc1ccc(C2Nc3ccccc3-n3c(-c4ccccc4)c4c(=O)n(C)c(=O)n(C)c4c32)o1 (centres undefined) | 101% |

tested on: Staphylococcus aureus; assay: Antibacterial activity against tarO deficient Staphylococcus aureus RN4220 assessed as growth inhibition at 100 uM after 12 hrs by optical density plate reader method; assay type: functional; details: not given

| SMILES | Activity |
| --- | --- |
| O=C(Nc1ccc(Nc2nc3c(S(=O)(=O)c4ccc(Br)cc4)nnn3c3ccccc23)cc1)c1ccco1 | inactive |
| Cc1ccc(S(=O)(=O)c2nnn3c2nc(N2CCCC2)c2ccccc23)cc1 | inactive |
| CCc1ccc(S(=O)(=O)c2nnn3c2nc(NCCNC(C)=O)c2cc(Cl)ccc23)cc1 | inactive |
| CCc1ccc(S(=O)(=O)c2nnn3c2nc(NCc2cccc(OC)c2)c2cc(Cl)ccc23)cc1 | inactive |
| CC(=O)c1ccc(N2CCN(c3nc4c(S(=O)(=O)c5ccc(C)c(C)c5)nnn4c4ccc(Cl)cc34)CC2)cc1 | inactive |
| O=S(=O)(c1ccccc1)c1nnn2c1nc(N1CCCC1)c1cc(Cl)ccc12 | inactive |
| CCOC(=O)C1CCCN(c2nc3c(S(=O)(=O)c4ccc(CC)cc4)nnn3c3ccc(Cl)cc23)C1 (centres undefined) | inactive |
| CCOC(=O)C1CCCN(c2nc3c(S(=O)(=O)c4ccc(C)c(C)c4)nnn3c3ccc(Cl)cc23)C1 (centres undefined) | inactive |
| CN(Cc1ccccc1)c1nc2c(S(=O)(=O)c3ccccc3)nnn2c2ccccc12 | inactive |
| CCc1ccc(S(=O)(=O)c2nnn3c2nc(NCCC(C)C)c2cc(Cl)ccc23)cc1 | inactive |
| COCCCNc1nc2c(S(=O)(=O)c3ccc(C)c(C)c3)nnn2c2ccc(Cl)cc12 | inactive |
| Cc1ccc(S(=O)(=O)c2nnn3c2nc(N2CCC(C)CC2)c2cc(Cl)ccc23)cc1C | inactive |
| CCc1ccc(S(=O)(=O)c2nnn3c2nc(NCc2ccccc2)c2cc(Cl)ccc23)cc1 | inactive |
| Cc1ccc(S(=O)(=O)c2nnn3c2nc(N2CCN(c4cccc(C)c4C)CC2)c2ccccc23)cc1C | inactive |
| COc1ccc(CNc2nc3c(S(=O)(=O)c4ccccc4)nnn3c3ccc(Cl)cc23)cc1 | inactive |
| COc1ccccc1Nc1nc2c(S(=O)(=O)c3c(C)cc(C)cc3C)nnn2c2ccccc12 | inactive |
| CCc1ccc(S(=O)(=O)c2nnn3c2nc(NCc2ccccc2OC)c2cc(Cl)ccc23)cc1 | inactive |
| CC(=O)c1ccccc1N1CCN(c2nc3c(S(=O)(=O)c4ccccc4)nnn3c3ccc(Cl)cc23)CC1 | inactive |
| Nc1nc2c(C(=O)N3CCOCC3)nnn2c2ccccc12 | inactive |
| COCCNc1nc2c(S(=O)(=O)c3ccccc3)nnn2c2ccc(Cl)cc12 | inactive |
| COc1ccccc1N1CCN(c2nc3c(S(=O)(=O)c4ccccc4)nnn3c3ccc(Cl)cc23)CC1 | inactive |
| Cc1ccc(S(=O)(=O)c2nnn3c2nc(NCC2CCCO2)c2ccccc23)cc1 (centres undefined) | inactive |
| CCc1ccc(S(=O)(=O)c2nnn3c2nc(N2CCC(C)CC2)c2cc(Cl)ccc23)cc1 | inactive |
| Cc1ccc(C)c(N2CCN(c3nc4c(S(=O)(=O)c5ccccc5)nnn4c4ccc(Cl)cc34)CC2)c1 | inactive |
| Cc1ccc(C)c(S(=O)(=O)c2nnn3c2nc(Nc2ccc(C)c(C)c2)c2ccccc23)c1 | inactive |
| Cc1ccc(S(=O)(=O)c2nnn3c2nc(N2CCN(c4ccccc4F)CC2)c2cc(Cl)ccc23)cc1C | inactive |

| SMILES | Activity |
| --- | --- |
| O=S(=O)(c1ccccc1)c1nnn2c1nc(NCc1ccccc1)c1cc(Cl)ccc12 | inactive |
| CCOC(=O)c1nnn2c1nc(N(CC)CC)c1ccccc12 | inactive |
| Cc1ccc(CNc2nc3c(S(=O)(=O)c4cc(C)ccc4C)nnn3c3ccccc23)cc1 | inactive |
| CCOc1ccc(Nc2nc3c(S(=O)(=O)c4ccc(CC)cc4)nnn3c3ccc(Cl)cc23)cc1 | inactive |
| Cc1ccc(S(=O)(=O)c2nnn3c2nc(NC(C)C)c2cc(Cl)ccc23)cc1C | inactive |
| CCc1ccc(S(=O)(=O)c2nnn3c2nc(N(CC)Cc2ccccc2)c2cc(Cl)ccc23)cc1 | inactive |
| CCc1ccc(S(=O)(=O)c2nnn3c2nc(N(C)Cc2ccccc2)c2cc(Cl)ccc23)cc1 | inactive |
| COCCCNc1nc2c(S(=O)(=O)c3ccccc3)nnn2c2ccc(Cl)cc12 | inactive |
| Cc1ccc(S(=O)(=O)c2nnn3c2nc(N2CCCC(C)C2)c2cc(Cl)ccc23)cc1C (centres undefined) | inactive |
| COc1ccccc1CNc1nc2c(S(=O)(=O)c3ccc(C)c(C)c3)nnn2c2ccc(Cl)cc12 | inactive |
| O=S(=O)(c1ccc(Cl)cc1)c1nnn2c1nc(Cl)c1ccccc12 | inactive |
| O=S(=O)(c1ccccc1)c1nnn2c1nc(Cl)c1ccccc12 | inactive |
| COc1ccccc1CNc1nc2c(S(=O)(=O)c3ccccc3)nnn2c2ccc(Cl)cc12 | inactive |
| CCc1ccc(S(=O)(=O)c2nnn3c2nc(N2CCC(C(N)=O)CC2)c2cc(Cl)ccc23)cc1 | inactive |
| CC(=O)c1ccc(Nc2nc3c(S(=O)(=O)c4ccccc4)nnn3c3ccc(Cl)cc23)cc1 | inactive |
| CCc1ccc(S(=O)(=O)c2nnn3c2nc(N2CCN(c4ccccc4)CC2)c2cc(Cl)ccc23)cc1 | inactive |
| Cc1ccc(S(=O)(=O)c2nnn3c2nc(NCCC(C)C)c2cc(Cl)ccc23)cc1C | inactive |
| CCc1ccc(S(=O)(=O)c2nnn3c2nc(Nc2ccc(F)cc2)c2cc(Cl)ccc23)cc1 | inactive |
| Cc1ccc(N2CCN(c3nc4c(S(=O)(=O)c5ccc(C)c(C)c5)nnn4c4ccccc34)CC2)c(C)c1 | inactive |
| CC(=O)NCCNc1nc2c(-c3ccccc3)nnn2c2ccccc12 | inactive |
| Cc1ccc(S(=O)(=O)c2nnn3c2nc(N2CCC(C(N)=O)CC2)c2cc(Cl)ccc23)cc1C | inactive |
| CC1CCN(c2nc3c(S(=O)(=O)c4ccccc4)nnn3c3ccc(Cl)cc23)CC1 | inactive |
| CCOCCCNc1nc2c(S(=O)(=O)c3ccc(CC)cc3)nnn2c2ccc(Cl)cc12 | inactive |
| CCc1ccc(S(=O)(=O)c2nnn3c2nc(Nc2cc(OC)cc(OC)c2)c2cc(Cl)ccc23)cc1 | inactive |
| CCN(Cc1ccccc1)c1nc2c(S(=O)(=O)c3ccccc3)nnn2c2ccc(Cl)cc12 | inactive |
| CCOC(=O)C1CCN(c2nc3c(S(=O)(=O)c4ccc(C)c(C)c4)nnn3c3ccc(Cl)cc23)CC1 | inactive |

| SMILES | Activity |
| --- | --- |
| O=C1CCCN1CCCNc1nc2c(S(=O)(=O)c3ccc(Br)cc3)nnn2c2ccccc12 | inactive |
| CCOC(=O)C1CCN(c2nc3c(S(=O)(=O)c4ccc(CC)cc4)nnn3c3ccc(Cl)cc23)CC1 | inactive |
| NC(=O)C1CCN(c2nc3c(S(=O)(=O)c4ccc(Br)cc4)nnn3c3ccccc23)CC1 | inactive |
| CCOC(=O)C1CCCN(c2nc3c(S(=O)(=O)c4ccccc4)nnn3c3ccccc23)C1 (centres undefined) | inactive |
| CCOC(=O)C1CCN(c2nc3c(S(=O)(=O)c4ccccc4)nnn3c3ccc(Cl)cc23)CC1 | inactive |
| CCc1ccc(S(=O)(=O)c2nnn3c2nc(N2CCCC(C)C2)c2cc(Cl)ccc23)cc1 (centres undefined) | inactive |
| c1ccc(-c2nnn3c2nc(N2CCOCC2)c2ccccc23)cc1 | inactive |
| COc1ccc(Nc2nc3c(S(=O)(=O)c4ccccc4)nnn3c3ccc(Cl)cc23)cc1 | inactive |
| Cc1ccc(S(=O)(=O)c2nnn3c2nc(N2CCN(c4ccccc4F)CC2)c2ccccc23)cc1C | inactive |
| CC(=O)c1ccc(Nc2nc3c(S(=O)(=O)c4ccc(C)c(C)c4)nnn3c3ccccc23)cc1 | inactive |
| CCN(CC)c1nc2c(S(=O)(=O)c3ccccc3)nnn2c2ccccc12 | inactive |
| COc1ccccc1N1CCN(c2nc3c(S(=O)(=O)c4ccc(C)c(C)c4)nnn3c3ccc(Cl)cc23)CC1 | inactive |
| Cc1ccc(S(=O)(=O)c2nnn3c2nc(N2CCN(c4ccc(F)cc4)CC2)c2cc(Cl)ccc23)cc1C | inactive |
| COc1ccc(Nc2nc3c(S(=O)(=O)c4ccccc4)nnn3c3ccc(Cl)cc23)cc1OC | inactive |
| CSc1cccc(Nc2nc3c(S(=O)(=O)c4ccccc4)nnn3c3ccc(Cl)cc23)c1 | inactive |
| CCN(Cc1ccccc1)c1nc2c(S(=O)(=O)c3ccc(C)c(C)c3)nnn2c2ccc(Cl)cc12 | inactive |
| O=S(=O)(c1ccccc1)c1nnn2c1nc(Nc1ccccc1)c1cc(Cl)ccc12 | inactive |
| Cc1ccc(C)c(S(=O)(=O)c2nnn3c2nc(NCCC(C)C)c2ccccc23)c1 | inactive |
| Cc1ccc(Nc2nc3c(S(=O)(=O)c4ccccc4)nnn3c3ccc(Cl)cc23)c(C)c1 | inactive |
| CCc1ccc(S(=O)(=O)c2nnn3c2nc(NC(C)C)c2cc(Cl)ccc23)cc1 | inactive |
| CC(=O)NCCNc1nc2c(S(=O)(=O)c3ccc(C)c(C)c3)nnn2c2ccc(Cl)cc12 | inactive |
| O=S(=O)(c1ccccc1)c1nnn2c1nc(N1CCN(c3ccccc3)CC1)c1cc(Cl)ccc12 | inactive |
| COc1cc(Nc2nc3c(S(=O)(=O)c4ccccc4)nnn3c3ccc(Cl)cc23)cc(OC)c1 | inactive |
| Cc1ccc(CNc2nc3c(S(=O)(=O)c4ccc(C)c(C)c4)nnn3c3ccc(Cl)cc23)cc1 | inactive |
| COc1ccc(Nc2nc3c(S(=O)(=O)c4ccccc4)nnn3c3ccc(Cl)cc23)c(OC)c1 | inactive |
